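Each compound was tested at five concentrations against cells in 96-well plates for 48 hours. GI50 is the concentration that inhibits growth by half.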 Active and inactive are the calls of the source. Cut-off read from the data, not from the text of the source: active = GI50 up to about 1.1 µM and inactive = higher.
How the values were obtained:
Assay in all cases: growth of human tumour cells (NCI), 48 h
786-0 = system: 786-0
A498 = system: A498
A549 = system: A549
ACHN = system: ACHN
BT-549 = system: BT-549
CCRF-CEM = system: CCRF-CEM
COLO 205 = system: COLO 205
DU-145 = system: DU-145
HCC 2998 = system: HCC 2998
HCT-116 = system: HCT-116
HCT-15 = system: HCT-15
HL-60 = system: HL-60
HOP-62 = system: HOP-62
HOP-92 = system: HOP-92
HT-29 = system: HT-29
Hs-578T = system: Hs-578T
IGROV-1 = system: IGROV-1
K562 = system: K562
KM12 = system: KM12
LOX IMVI = system: LOX IMVI
M14 = system: M14
MCF7 = system: MCF7
MDA-MB-231 = system: MDA-MB-231
MDA-MB-435 = system: MDA-MB-435
MDA-N = system: MDA-N
MOLT-4 = system: MOLT-4
Malme-3M = system: Malme-3M
NCI-H226 = system: NCI-H226
NCI-H23 = system: NCI-H23
NCI-H460 = system: NCI-H460
NCI-H522 = system: NCI-H522
NCI/ADR-RES = system: NCI/ADR-RES
OVCAR-3 = system: OVCAR-3
OVCAR-4 = system: OVCAR-4
OVCAR-5 = system: OVCAR-5
OVCAR-8 = system: OVCAR-8
PC-3 = system: PC-3
RPMI-8226 = system: RPMI-8226
RXF 393 = system: RXF 393
SF-268 = system: SF-268
SF-295 = system: SF-295
SF-539 = system: SF-539
SK-MEL-28 = system: SK-MEL-28
SK-MEL-5 = system: SK-MEL-5
SK-OV-3 = system: SK-OV-3
SN12C = system: SN12C
SNB-19 = system: SNB-19
SNB-75 = system: SNB-75
SR = system: SR
SW-620 = system: SW-620
T47D = system: T47D
TK-10 = system: TK-10
U-251 = system: U-251
UACC-62 = system: UACC-62
UO-31 = system: UO-31
CAKI-1 = system: CAKI-1
EKVX = system: EKVX
SK-MEL-2 = system: SK-MEL-2
UACC-257 = system: UACC-257

Q: What does the source list for `COC1=C(N2CC2)C(=O)c2nc3n(c2C1=O)CCC3`?
A: GI50 (786-0): 321 nM (active); GI50 (A498): 1410 nM (inactive); GI50 (A549): 1980 nM (inactive); GI50 (ACHN): 275 nM (active); GI50 (BT-549): 1150 nM (inactive); GI50 (CCRF-CEM): 265 nM (active); GI50 (COLO 205): 656 nM (active); GI50 (DU-145): 372 nM (active); GI50 (HCC 2998): 679 nM (active); GI50 (HCT-116): 434 nM (active); GI50 (HCT-15): 368 nM; GI50 (HL-60): 210 nM (active); GI50 (HOP-62): 953 nM (active); GI50 (HOP-92): 3330 nM (inactive); GI50 (HT-29): 352 nM (active); GI50 (Hs-578T): 5090 nM (inactive); GI50 (IGROV-1): 1430 nM (inactive); GI50 (K562): 271 nM (active); GI50 (KM12): 1370 nM (inactive); GI50 (LOX IMVI): 406 nM (active); GI50 (M14): 220 nM (active); GI50 (MCF7): 532 nM (active); GI50 (MDA-MB-231): 2720 nM (inactive); GI50 (MDA-MB-435): 1450 nM (inactive); GI50 (MDA-N): 1380 nM (inactive); GI50 (MOLT-4): 306 nM (active); GI50 (Malme-3M): 305 nM (active); GI50 (NCI-H226): 1870 nM (inactive); GI50 (NCI-H23): 497 nM (active); GI50 (NCI-H460): 450 nM (active); GI50 (NCI-H522): 147 nM (active); GI50 (NCI/ADR-RES): 453 nM (active); GI50 (OVCAR-3): 393 nM (active); GI50 (OVCAR-4): 220 nM (active); GI50 (OVCAR-5): 1260 nM (inactive); GI50 (OVCAR-8): 1350 nM (inactive); GI50 (PC-3): 695 nM (active); GI50 (RPMI-8226): 48.9 nM (active); GI50 (RXF 393): 74.3 nM (active); GI50 (SF-268): 1600 nM (inactive); GI50 (SF-295): 815 nM (active); GI50 (SF-539): 2040 nM (inactive); GI50 (SK-MEL-28): 4010 nM (inactive); GI50 (SK-MEL-5): 1290 nM (inactive); GI50 (SK-OV-3): 1180 nM (inactive); GI50 (SN12C): 1300 nM (inactive); GI50 (SNB-19): 1390 nM (inactive); GI50 (SNB-75): 1710 nM (inactive); GI50 (SR): 357 nM (active); GI50 (SW-620): 242 nM (active); GI50 (T47D): 1790 nM (inactive); GI50 (TK-10): 3230 nM (inactive); GI50 (U-251): 1400 nM (inactive); GI50 (UACC-62): 1540 nM (inactive); GI50 (UO-31): 224 nM (active)

Q: Which results are given for `C#CC(O)/C=C/CCCCCCC#CC/C=C\CC#CCCCCCCCCC(O)C#C` (stereo not drawn)?
A: GI50 (786-0): 2080 nM (inactive); GI50 (A498): 12600 nM (inactive); GI50 (A549): 8430 nM (inactive); GI50 (ACHN): 12200 nM (inactive); GI50 (BT-549): 6710 nM (inactive); GI50 (CAKI-1): 4290 nM (inactive); GI50 (CCRF-CEM): 83.6 nM (active); GI50 (COLO 205): 2580 nM (inactive); GI50 (DU-145): 5830 nM (inactive); GI50 (EKVX): 3510 nM (inactive); GI50 (HCC 2998): 3630 nM (inactive); GI50 (HCT-116): 2280 nM (inactive); GI50 (HCT-15): 3270 nM; GI50 (HL-60): 1740 nM (inactive); GI50 (HOP-62): 4270 nM (inactive); GI50 (HOP-92): 1800 nM (inactive); GI50 (HT-29): 2740 nM (inactive); GI50 (Hs-578T): 20600 nM (inactive); GI50 (IGROV-1): 407 nM (active); GI50 (K562): 3140 nM (inactive); GI50 (KM12): 3050 nM (inactive); GI50 (LOX IMVI): < 10 nM (active); GI50 (M14): 1110 nM (active); GI50 (MCF7): 17400 nM (inactive); GI50 (MDA-MB-231): 3320 nM (inactive); GI50 (MDA-MB-435): 2530 nM (inactive); GI50 (MDA-N): 1990 nM (inactive); GI50 (MOLT-4): 270 nM (active); GI50 (Malme-3M): 1950 nM (inactive); GI50 (NCI-H226): 15600 nM (inactive); GI50 (NCI-H23): 1020 nM (active); GI50 (NCI-H460): 17100 nM (inactive); GI50 (NCI-H522): 174 nM (active); GI50 (NCI/ADR-RES): 3390 nM (inactive); GI50 (OVCAR-3): 10100 nM (inactive); GI50 (OVCAR-4): 4190 nM (inactive); GI50 (OVCAR-5): 12800 nM (inactive); GI50 (OVCAR-8): 1910 nM (inactive); GI50 (PC-3): 14300 nM (inactive); GI50 (RXF 393): 14600 nM (inactive); GI50 (SF-268): 9590 nM (inactive); GI50 (SF-295): 15100 nM (inactive); GI50 (SF-539): 20800 nM (inactive); GI50 (SK-MEL-28): 3420 nM (inactive); GI50 (SK-MEL-2): 2590 nM (inactive); GI50 (SK-MEL-5): 2680 nM (inactive); GI50 (SK-OV-3): 17600 nM (inactive); GI50 (SN12C): 1990 nM (inactive); GI50 (SNB-19): 20000 nM (inactive); GI50 (SNB-75): 9100 nM (inactive); GI50 (SR): 2370 nM (inactive); GI50 (SW-620): 3500 nM (inactive); GI50 (T47D): 10500 nM (inactive); GI50 (TK-10): 13100 nM (inactive); GI50 (U-251): 20500 nM (inactive); GI50 (UACC-257): 3350 nM (inactive); GI50 (UACC-62): 9080 nM (inactive); GI50 (UO-31): 667 nM (active)
